Experimental data published in publication PMC11597202, “Novel Thiazole-Fused [4,5-g] or [5,4-g]Quinazolin-8-ones and Their Quinazoline Analogues: Synthesis and Biological Evaluation” (Pharmaceuticals, 2024).

Legend:
CLK1 = biological target: T1, CLK1 (Homo sapiens, UniProt P49759); assay: ADP-Glo kinase inhibition assay, CLK1; type: biochemical; conditions: percentage of maximum activity of the DMSO control, mean n = 2, 10 µM ATP, read-out: Residual activity CLK1; for remaining activity at 1 µM: 1 μM compound; for remaining activity at 10 µM: 10 μM compound
T1 construct: host or cells: Sf9 insect cells (baculovirus)
Description: (§1) Kinase enzymatic activities were assayed in 384-well plates using the ADP-Glo^TM assay kit (Promega, Madison, WI, USA) according to the recommendations of the manufacturer. This luminescent ADP detection assay was described by Zegzouti and co-workers and provides a homogeneous and high-throughput screening method to measure kinase activity by quantifying the amount of ADP produced during a kinase reaction. Briefly, the reactions were carried out in a final volume of 6 µL for 30 min at 30 °C in an appropriate kinase buffer (10 mM MgCl2, 1 mM EGTA, 1 mM DTT, 25 mM Tris-HCl pH 7.5, 50 µg/mL heparin), with peptide or protein as substrate in the presence of 10 µM ATP. Peptide substrates were obtained from ProteoGenix (Schiltigheim, France) or Sigma for Histone H1, Poly (L-glutamic acid–L-tyrosine) sodium salt, Casein and MBP. After that, 6 µL of ADP-Glo^TM Kinase Reagent was added to stop the kinase reaction. After an incubation time of 50 min at room temperature (rt), 12 µL of Kinase Detection Reagent was added for one hour at rt. The transmitted signal was measured using the Envision (PerkinElmer, Waltham, MA, USA) microplate luminometer and expressed as Relative Light Units (RLUs). Kinase activities are expressed as percentages of remaining kinase activities detected after treatment with 1 or 10 µM of the tested compounds. The maximum kinase activity was measured in the absence of inhibitor but with an equivalent dose of DMSO (solvent of the tested compounds).
(§2) 3. Kinase inhibition assays
(§3) Kinase enzymatic activities were assayed in 384-well plates using the ADP-GloTM assay kit (Promega, Madison, WI) according to the recommendations of the manufacturer. This luminescent ADP detection assay was described by Zegzouti and co-workers and provides a homogeneous and high-throughput screening method to measure kinase activity by quantifying the amount of ADP produced during a kinase reaction. Briefly, the reactions were carried out in a final volume of 6 µl for 30 min at 30°C in appropriate kinase buffer (10 mM MgCl2, 1 mM EGTA, 1 mM DTT, 25 mM Tris-HCl pH 7.5, 50 µg/mL heparin), with peptide or protein as substrate in the presence of 10 µM ATP. Peptide substrates were obtained from ProteoGenix (Schiltigheim, France) or Sigma for Histone H1, Poly (L-glutamic acid – L-tyrosine) sodium salt, Casein and MBP. After that, 6 µL of ADP-GloTM Kinase Reagent was added to stop the kinase reaction. After an incubation time of 50 min at room temperature (rt), 12 µL of Kinase Detection Reagent was added for 1 h at rt. The transmitted signal was measured using the Envision (PerkinElmer, Waltham, MA) microplate luminometer and expressed in Relative Light Unit (RLU). Kinase activities are expressed in percentages of remaining kinase activities detected after treatment with 1 or 10 µM of the tested compounds. The maximal kinase activity is measured in the absence of inhibitor but with an equivalent dose of DMSO (solvent of the tested compounds).
(§4) Table. Human protein kinases tested in the panel: CDK9, HASPIN, PIM1, GSK3b, CK1ε, JAK3, CLK1 […]
1 Peptide substrates were obtained from ProteoGenix (Schiltigheim, France) or Sigma for Histone H1, Poly (L-glutamic acid – L-tyrosine) sodium salt, Casein and MBP; 2 “Sp” stands for phosphorylated serine.
Controls inhibitors: To validate each kinase assay, the following model inhibitors were used under the same conditions than the tested compounds: Staurosporine from Streptomyces sp.

Pim-1 = biological target: T2, Pim-1 (Homo sapiens, UniProt P11309); assay: ADP-Glo kinase inhibition assay, Pim-1; type: biochemical; conditions: percentage of maximum activity of the DMSO control, mean n = 2, 10 µM ATP, read-out: Residual activity Pim-1; for remaining activity at 1 µM: 1 μM compound; for remaining activity at 10 µM: 10 μM compound
T2 construct: host or cells: bacteria
Description: as §1, §2, §3, §4
Protein Kinase Enzyme Description Substrate1
(Family) (Working concentration)
CDK9/CyclinT Human, recombinant, expressed by Peptide:
(CMGC) baculovirus in Sf9 insect cells […]
CLK1 Human, recombinant, expressed by Peptide: […]
(CMGC) baculovirus in Sf9 insect cells (57.3µM)
DYRK1A Human, recombinant, expressed by Peptide: […]
(CMGC) baculovirus in Sf9 insect cells (10.7µM)
PIM1 Human proto-oncogene, recombinant, Peptide: […]
(CAMK) expressed in bacteria (630 µM)
GSK3 Human, recombinant, expressed by Peptide:
(CMGC) baculovirus in Sf9 insect cells […]pEDEEE 3
HASPIN Human, kinase domain, amino acids 470 to Histone H3 peptide (1-21):
(Other) 798, recombinant, expressed in bacteria […] (8µM)
CK1ε Human, recombinant, expressed by Peptide: […]pAYSITA 2
(CK1) baculovirus in Sf9 insect cells (170µM)
JAK3 Human, recombinant, expressed by Peptide: […]
(TK) baculovirus in Sf9 insect cells (94µM) […]

T2 sequence (P11309 whole entry): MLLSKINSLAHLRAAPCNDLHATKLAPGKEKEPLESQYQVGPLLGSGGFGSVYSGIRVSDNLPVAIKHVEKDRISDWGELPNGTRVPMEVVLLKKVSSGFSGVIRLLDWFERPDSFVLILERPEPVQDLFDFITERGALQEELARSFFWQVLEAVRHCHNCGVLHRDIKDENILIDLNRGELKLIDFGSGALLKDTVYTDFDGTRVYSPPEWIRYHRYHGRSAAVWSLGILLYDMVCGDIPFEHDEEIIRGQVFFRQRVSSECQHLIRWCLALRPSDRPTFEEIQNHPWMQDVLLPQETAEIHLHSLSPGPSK
T1 sequence (P49759 whole entry): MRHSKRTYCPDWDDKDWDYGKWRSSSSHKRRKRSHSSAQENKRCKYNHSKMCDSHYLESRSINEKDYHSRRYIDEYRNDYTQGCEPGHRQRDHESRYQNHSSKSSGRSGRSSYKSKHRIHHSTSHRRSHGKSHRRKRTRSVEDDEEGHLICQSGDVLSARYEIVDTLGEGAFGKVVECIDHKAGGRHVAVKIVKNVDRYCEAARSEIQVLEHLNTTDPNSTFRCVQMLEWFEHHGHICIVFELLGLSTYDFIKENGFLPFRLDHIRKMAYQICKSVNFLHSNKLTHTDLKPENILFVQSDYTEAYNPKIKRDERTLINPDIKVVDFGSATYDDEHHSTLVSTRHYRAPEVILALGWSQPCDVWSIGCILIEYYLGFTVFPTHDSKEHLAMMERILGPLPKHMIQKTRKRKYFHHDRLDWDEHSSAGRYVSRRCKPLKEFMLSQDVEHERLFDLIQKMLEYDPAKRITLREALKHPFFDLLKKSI

remaining activity at 1 µM (CLK1) [%]	remaining activity at 10 µM (CLK1) [%]	remaining activity at 1 µM (Pim-1) [%]	remaining activity at 10 µM (Pim-1) [%]	SMILES
100	102	90	78	COC(=N)c1nc2cc3ncn(Cc4ccccc4)c(=O)c3cc2s1 [Compound 6b, Methyl 7-benzyl-8-oxo-7,8-dihydrothiazolo[5,4-g]quinazoline-2-carbimidate]
89	73	92	94	COC(=N)c1nc2ccc3c(=O)n(Cc4ccccc4)cnc3c2s1 [Compound 6d, Methyl 7-benzyl-6-oxo-6,7-dihydrothiazolo[4,5-h]quinazoline-2-carbimidate]
89	52	71	113	COC(=N)c1nc2cc3c(Nc4ccc(OC)cc4F)ncnc3cc2s1 [Compound 15a, Methyl 8-[(2-fluoro-4-methoxyphenyl)amino]thiazolo[4,5-g]quinazoline-2-carbimidate]
102	105	74	105	COC(=N)c1nc2cc3ncnc(Nc4ccc(OC)cc4F)c3cc2s1 [Compound 15b, Methyl 8-[(2-fluoro-4-methoxyphenyl)amino]thiazolo[5,4-g]quinazoline-2-carbimidate]
75	27	79	77	COC(=N)c1nc2ccc3ncn(Cc4ccccc4)c(=O)c3c2s1 [Compound I, methyl 8-benzyl-9-oxo-8,9-dihydrothiazolo[5,4-f]quinazoline-2-carbimidate, reference compound]

The remaining lines, values behind:

SMILES	remaining activity at 1 µM (CLK1) [%]	remaining activity at 10 µM (CLK1) [%]	remaining activity at 1 µM (Pim-1) [%]	remaining activity at 10 µM (Pim-1) [%]
COC(=N)c1nc2cc3c(=O)n(Cc4ccccc4)cnc3cc2s1 [Compound 6a, Methyl 7-benzyl-8-oxo-7,8-dihydrothiazolo[4,5-g]quinazoline-2-carbimidate]	97	96	80	133
COC(=N)c1nc2c(ccc3c(=O)n(Cc4ccccc4)cnc32)s1 [Compound 6c, Methyl 7-benzyl-6-oxo-6,7-dihydrothiazolo[5,4-h]quinazoline-2-carbimidate]	95	84	74	86
COC(=N)c1nc2ccc3ncnc(Nc4ccc(OC)cc4F)c3c2s1 [Compound II, methyl 9-[(2-fluoro-4-methoxyphenyl)amino]thiazolo[5,4-f]quinazoline-2-carbimidate, reference compound]			52	32
